Assay results reported in patent US4241063A, “Purine derivatives and their use as bronchodilators” (Bristol-Myers Company, priority 1979, dated 1980).
In brackets after ≈: the same amount, converted by molar mass. Where two headings read alike, the source gives them in different places.

What was measured:
[1] = tested on: Tracheal chains of guinea pig; experiment: In vitro bronchodilator activity (guinea pig tracheal chain relaxation, Magnus method); format: cell-based; settings: Cavia porcellus, read-out: EC50 (concentration producing a relaxation which is 50% of the maximum response to 0.1 mcg./ml. of isoproterenol), relative to maximum response to 0.1 mcg./ml. isoproterenol
Description: Tracheal chains of guinea pig were prepared by the method of A. Akcasu, Arch. Int. Pharmacodyn. […] The response to each test compound was recorded by the Magnus method and expressed as a percentage of the maximum response obtained with 0.1 mcg./ml. of isoproterenol prior to each experiment.

[2] = tested on: intratracheal pressure (ITP) in the guinea pig; experiment: In vivo bronchodilator activity: decrease in intratracheal pressure (ITP) in anesthetized guinea pig; settings: for ED50: Cavia porcellus, read-out: ITP ED50 (dose resulting in a 50% decrease in intratracheal pressure)
Description: (§1) The trachea of anesthetized guinea pig was cannulated and the ITP recorded on a polygraph under artificial ventilation. Arterial blood pressure (ABP; reflecting hypotensive activity) was also measured during the experiment. Either intravenous or intraduodenal routes of administration are used. […] The ratio of hypotensive ED20 /bronchodilating ED50 reflects an assessment of the separation of desirable bronchodilator activity from undesirable cardiovascular (hypotensive) effect in the compounds.

[3] = tested on: Arterial blood pressure (ABP); experiment: In vivo hypotensive activity: arterial blood pressure (ABP) in anesthetized guinea pig
Description: as §1

Compound | EC50 [1] [µg/mL] | ED50 ([2]; intravenous) [mg/kg] | ABP ED20 (dose which reduces arterial blood pressure by 20%) ([3]; intravenous) [mg/kg] | ED50 ([2]; intraduodenal) [mg/kg] | Ratio ABP/ITP (hypotensive ED20/bronchodilating ED50) ([2]; intraduodenal) | Ratio ABP/ITP (hypotensive ED20/bronchodilating ED50) ([2]; intravenous) | ABP ED20 (dose which reduces arterial blood pressure by 20%) ([3]; intraduodenal) [mg/kg]
Nc1nc(Cl)nc2c1ncn2C1CCCCO1 (centres unmarked) [Example 1, 2-Chloro-9-(tetrahydropyran-2-yl)-9H-adenine] | 0.45 (≈ 1.77 µM) | 0.23 | > 1 |  |  |  | 
Cn1c(=O)c2[nH]cnc2n(C)c1=O [Aminophylline, reference compound] |  |  | 1.4 |  |  |  | 
CCCOc1nc(N)c2ncn(C3CCCCO3)c2n1 (centres unmarked) [Example 3, 2-n-Propoxy-9-(tetrahydropyran-2-yl)-9H-adenine] | 0.17 (≈ 0.613 µM) | 0.26 | 1.9 | 1.4 | 9.6 | 7.3 | 13.5
COc1nc(N)c2ncn(C3CCCCO3)c2n1 (centres unmarked) [Example 2, 2-Methoxy-9-(tetrahydropyran-2-yl)-9H-adenine] | > 3 | 2.2 | > 1 |  |  |  | 
